Source: patent publication US20220348651A1, “ENTPD2 ANTIBODIES, COMBINATION THERAPIES, AND METHODS OF USING THE ANTIBODIES AND COMBINATION THERAPIES” (Novartis AG, priority 2019, published 2022)

Test system: human ENTPD2 engineered B16LM3 clone B5
Test: Human ENTPD2 engineered B16LM3 clone B5 model, combination with A2AR antagonist NIR178
Type: in vivo
Conditions: NIR178 50 or 200 mg/kg p.o. 4 days on, 3 days off, combined with non-specific isotype control
Protocol: Human ENTPD2-engineered B16LM3 clone B5 was established in female C57BL/6 mice by subcutaneous injection of 0.5×10^6 cells into the right flank of each mouse. Once tumors reached approximately 50 mm^3, mice were randomized according to tumor volume into treatment groups (n=8 per group). Mice received an intravenous (i.v.) treatment of either anti-ENTPD2 mAb1 at a final dose of 10/mg/kg or a non-specific human IgG1 isotype control 10 mg/kg on day 1 of study. NIR178 was administered per os (p.o.) for 4 days on and 3 days off, starting at the beginning of study at either 50 mg/kg or 200 mg/kg. All doses were adjusted to individual mouse body weights. The study was carried out for thirteen days post treatment initiation and tumor volumes were assessed every other day to assess efficacy.

Nc1nc(-n2cccn2)nc(-n2cccn2)c1Br [NIR178, 5-bromo-2,6-di-(1H-pyrazol-1-yl)pyrimidine-4-amine, reference compound]
anti-tumor efficacy: No significant anti-tumor efficacy
